The values below come from publication PMC4322620 (Frontiers in Pharmacology, 2015).

The structures appear in SMILES notation.

For one assay, the system named is thermal pain. The settings on record: mouse, in vivo, ip, 4 mg/kg.
The test system of another assay is acute thermal pain. The settings on record: mouse, in vivo, ip, 4 mg/kg.

Consider `CC12CC3CC(C)(C1)CC(N)(C3)C2` [Memantine], for which the “Hot plate (latency to hindlimb response)” value in the assay with thermal pain is 7.9 ± 0.49 s. In addition, the Tail flick latency in the assay on acute thermal pain was determined as 4.836 ± 0.264 s.
